Results: patent US10280134B1, “Potent cytotoxic agent against human hepatocellular carcinoma cell line based on 2-aryl hydrazonopropanal pharmacophore” (King Abdulaziz University, priority 2018, dated 2019)
≈ marks a conversion by molar mass, not a printed value. Read-outs that look alike come from different tables or passages of the source.

Tests used:
[1] = system: BJ1 (Normal Skin Fibroblast); assay: MTT cytotoxicity assay on normal human fibroblast cell line BJ1; format: cell-based; settings: for Remarks (% lethality at 100 ppm): BJ1 normal skin fibroblast, 48 hrs; for IC50 / IC90: Homo sapiens, Skin fibroblast, 48 h; for IC50: read-out: IC50: Lethal concentration of the sample which causes the death of 50% of cells in 48 hrs; for IC90: read-out: IC90: Lethal concentration of the sample which causes the death of 90% of cells in 48 hrs
Experimental: The activity of the test compounds on a non-cancerous, normal human fibroblast cell line, BJ1, was assessed by the mitochondrial dependent reduction of yellow MTT (3-(4,5-dimethylthiazol-2-yl)-2,5-diphenyl tetrazolium bromide) to purple formazan; Mosmann T. Rapid colorimetric assays for cellular growth and survival: Application to proliferation and cytotoxicity assays. J Immunol Methods.
All procedures were done in a sterile area using a Laminar flow cabinet biosafety class II level (Baker, SG4031NT, Sanford, Me., USA).
(§1) Cells were batch cultured for 10 days, then seeded at concentration of 10×10^3 cells/well in fresh complete growth medium in 96-well microtiter plastic plates at 37° C. for 24 h under 5% CO2 using a water jacketed Carbon dioxide incubator (Sheldon, TC2323, Cornelius, Oreg., USA). […] To stop the reaction and dissolving the formed crystals, 200 μL of 10% Sodium dodecyl sulphate (SDS) in deionized water was added to each well and incubated overnight at 37° C.
(§2) A statistical significance was tested between samples and negative control (cells with vehicle) using independent t-test by SPSS 11 program. DMSO is the vehicle used for dissolution of plant extracts and its final concentration on the cells was less than 0.2%. The percentage of change in viability was calculated according to the formula: ((Reading of extract/Reading of negative control)−1)×100.
Data Analysis of Cytotoxic Activity Test. Sample Testing Against the Normal Human Epithelial Cell Line: BJ1 (Normal Skin Fibroblast).

[2] = system: hepatocellular carcinoma cell line HEPG2; assay: MTT cytotoxicity assay on human hepatocellular carcinoma cell line HePG2; format: cell-based; settings: for Remarks (% lethality at 100 ppm): HEPG2, at 100 ppm; for IC50 / IC90: Homo sapiens; for IC90: read-out: IC90: Lethal concentration of the sample which causes the death of 90% of cells in 48 hrs
Experimental: Cell viability was assessed by the mitochondrial dependent reduction of yellow MTT (3-(4,5-dimethylthiazol-2-yl)-2,5-diphenyl tetrazolium bromide) to purple formazan; Mossman, et al., id.
All procedures were done in a sterile area using a Laminar flow cabinet biosafety class II level (Baker, SG403INT, Sanford, Me., USA).
as §1, §2
Samples Tested Against the Human Tumor Cell Line(s): HePG 2 a Human Hepatocellular Carcinoma Cell Line.

[3] = HEPG2, MTT, 48 hrs, 100 to 0.78 μg/ml, read-out: IC50: Lethal concentration of the sample which causes the death of 50% of cells in 48 hrs
[4] = HEPG2, MTT, 48 hrs, 100 to 0.78 μg/ml

Structure (SMILES) | Remarks (% lethality at 100 ppm) [1] [% at 100 ppm] | safety on normal human cell line (in words) ([1]; normal human epithelial cell line (BJ1)) | Remarks (% lethality at 100 ppm) ([2]; 48 hrs) [% at 100 ppm] | IC50 [2, 3] [µg/mL] | IC90 [2, 4] [µg/mL] | IC50 [1] [µg/mL] | IC90 [1] [µg/mL] | IC50 ([2]; HEPG2, positive control, Table 3, Mw = 579.99, read-out: IC50 (positive control)) [µM]
COC(=O)c1ccccc1N/N=C(\C=O)C(=O)c1ccccc1 [Compound 1] | 41.5 | substantially safe | 95.3 | 45.5 | 77.3 (≈ 249 µM) | – | – | –
COC(=O)c1ccccc1N/N=C(\C=O)C(C)=O [Compound 2] | 100 | – | 100 | 15.7 | 28.3 (≈ 114 µM) | 16.9 (≈ 68.1 µM) | 29.1 (≈ 117 µM) | –
COC(=O)c1ccccc1N/N=C(\C=O)C(=O)c1cccs1 [Compound 3] | 80 | – | 100 | 14.7 | 26 (≈ 82.2 µM) | 61 (≈ 193 µM) | 105 (≈ 332 µM) | –
COc1cccc2c1C(=O)c1c(O)c3c(c(O)c1C2=O)C[C@@](O)(C(=O)CO)C[C@@H]3O[C@H]1C[C@H](N)[C@H](O)[C@H](C)O1 [Doxorubicin, doxorubicin, reference compound] | – | – | – | – | – | – | – | 37.8
